# Tested on: HCV genotype 1b replicon in Huh 7 cells
# Test: HCV replicon assay (1b_Huh-Luc/Neo-ET cell line, luciferase readout)
# Assay type: cell-based
# Details: Hepatitis C virus, Huh-7; HCV 1b replicon; read-out: Inhibition of HCV genotype 1b
# In short: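 Replicon level was read as luciferase signal after 72 h compound exposure, triplicate wells, starting the day after cells were plated. Cell line: 1b_Huh-Luc/Neo-ET. Values normalised to control as percent, and EC50 fitted with a variable-slope sigmoid; determinations repeated.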
row,Structure (SMILES),EC50
1,COC(=O)N[C@@H](C(=O)N1CCCC[C@H]1c1ncc(-c2ccc(-c3ccc4cc(-c5cnc([C@@H]6CCCN6C(=O)[C@H](NC(=O)OC)c6ccccc6)[nH]5)ccc4n3)cc2)[nH]1)c1ccccc1 [compound 457],< 1 nM
2,O=C(N[C@@H](C(=O)N1CCCC[C@H]1c1ncc(-c2ccc(-c3ccc4cc(-c5cnc([C@@H]6CCCN6C(=O)[C@H](NC(=O)OC6CCOCC6)c6ccccc6)[nH]5)ccc4n3)cc2)[nH]1)c1ccccc1)OC1CCOCC1 [compound 458],< 1 nM
3,COC(=O)N[C@@H](C)C(=O)N1CCC[C@H]1c1ncc(-c2ccc3nc(-c4ccc(-c5cnc([C@@H]6CCCN6C(=O)[C@H](NC(=O)OC)c6ccccc6)[nH]5)c(F)c4)ccc3c2)[nH]1 [compound 459],< 1 nM
4,COC(=O)N[C@H](C(=O)N1CCC[C@H]1c1ncc(-c2ccc3nc(-c4ccc(-c5cnc([C@@H]6CCCN6C(=O)[C@H](NC(=O)OC)c6ccccc6)[nH]5)c(F)c4)ccc3c2)[nH]1)[C@@H](C)OC [compound 460],< 1 nM
5,COC(=O)N[C@H](C(=O)N1CCC[C@H]1c1ncc(-c2ccc3cc(-c4ccc(-c5cnc([C@@H]6CCCN6C(=O)[C@H](NC(=O)OC)c6ccccc6)[nH]5)nn4)ccc3c2)[nH]1)C(C)C [compound 461],< 1 nM
6,COC[C@H](NC(=O)OC)C(=O)N1CCC[C@H]1c1ncc(-c2ccc3cc(-c4ccc(-c5cnc([C@@H]6COCCN6C(=O)[C@@H](NC(=O)OC)c6ccccc6)[nH]5)cc4)ccc3c2)[nH]1 [compound 462],< 1 nM
7,COC[C@H](NC(=O)OC)C(=O)N1CCC[C@H]1c1ncc(-c2ccc(-c3ccc4cc(-c5cnc([C@@H]6CCCN6C(=O)[C@H](COC)NC(=O)OC)[nH]5)ccc4c3)cc2)[nH]1 [compound 463],< 1 nM
8,COC(=O)N[C@@H](C)C(=O)N1CCC[C@H]1c1ncc(-c2ccc3cc(-c4ccc(-c5cnc([C@@H]6CCCN6C(=O)[C@H](NC(=O)OC)c6ccsc6)[nH]5)cc4)ccc3c2)[nH]1 [compound 464],< 1 nM
9,COC[C@H](NC(=O)OC)C(=O)N1CCC[C@H]1c1ncc(-c2ccc3cc(-c4ccc(-c5cnc([C@@H]6CCCN6C(=O)[C@H](NC(=O)OC)c6ccsc6)[nH]5)cc4)ccc3c2)[nH]1 [compound 465],< 1 nM
10,COC(=O)N[C@H](C(=O)N1CCC[C@H]1c1ncc(-c2ccc3cc(-c4ccc(-c5cnc([C@@H]6CCCN6C(=O)[C@H](NC(=O)OC)c6ccsc6)[nH]5)cc4)ccc3c2)[nH]1)C(C)C [compound 466],< 1 nM
11,COC(=O)N[C@@H](CC(C)C)C(=O)N1CCC[C@H]1c1ncc(-c2ccc3nc(-c4ccc(-c5cnc([C@@H]6CCCN6C(=O)[C@H](NC(=O)OC)c6ccccc6)[nH]5)c(F)c4)ccc3c2)[nH]1 [compound 467],< 1 nM
12,COC(=O)N[C@H](C(=O)N1CCC[C@H]1c1ncc(-c2ccc3nc(-c4ccc(-c5cnc([C@@H]6CCCN6C(=O)[C@H](NC(=O)OC)c6ccccc6)[nH]5)c(F)c4)ccc3c2)[nH]1)C1CCCC1 [compound 468],< 1 nM
13,COC(=O)N[C@H](C(=O)N1CCC[C@H]1c1ncc(-c2ccc3nc(-c4ccc(-c5cnc([C@@H]6CN(C(=O)OC)CCN6C(=O)[C@@H](NC(=O)OC)C(C)C)[nH]5)cc4)ccc3c2)[nH]1)C(C)C [compound 469],< 1 nM
14,COC(=O)N[C@H](C(=O)N1CCN(C(=O)OC)C[C@H]1c1ncc(-c2ccc(-c3ccc4cc(-c5cnc([C@@H]6CCCN6C(=O)[C@@H](NC(=O)OC)C6CCOCC6)[nH]5)ccc4n3)cc2)[nH]1)C(C)C [compound 470],< 1 nM
15,COC(=O)N[C@H](C(=O)N1CCN(C(=O)OC)C[C@H]1c1ncc(-c2ccc(-c3ccc4cc(-c5cnc([C@@H]6CCCN6C(=O)[C@H](NC(=O)OC)c6ccccc6)[nH]5)ccc4n3)cc2)[nH]1)C(C)C [compound 471],< 1 nM
16,COC(=O)N[C@H](C(=O)N1CCN(C(=O)OC)C[C@H]1c1ncc(-c2ccc(-c3ccc4cc(-c5cnc([C@@H]6CCCN6C(=O)[C@H](NC(=O)OC6CCOCC6)c6ccccc6)[nH]5)ccc4n3)cc2)[nH]1)C(C)C [compound 472],< 1 nM
17,COC(=O)N[C@H](C(=O)N1CCC[C@H]1c1ncc(-c2ccc3nc(-c4ccc(-c5cnc([C@@H]6CCCN6C(=O)[C@H](NC(=O)OC)c6ccccc6)[nH]5)c(F)c4)ccc3c2)[nH]1)C1CCOCC1 [compound 473],< 1 nM
18,COC(=O)N[C@@H](C(=O)N1CCC[C@H]1c1ncc(-c2ccc(-c3ccc4cc(-c5cnc([C@@H]6CCCN6C(=O)[C@H](NC(=O)OC6CCOCC6)c6ccccc6)[nH]5)ccc4n3)cc2F)[nH]1)c1ccccc1 [compound 474],< 1 nM
19,COC(=O)N[C@H](C(=O)N1CCC[C@H]1c1ncc(-c2ccc(-c3ccc4cc(-c5cnc([C@@H]6CCCN6C(=O)[C@@H](NC(=O)OC)[C@@H](C)OC)[nH]5)ccc4n3)cc2F)[nH]1)C(C)C [compound 475],< 1 nM
20,COC(=O)N[C@H](C(=O)N1CCC[C@H]1c1ncc(-c2cnc(-c3ccc4cc(-c5cnc([C@@H]6CCCN6C(=O)[C@@H](NC(=O)OC)C(C)C)[nH]5)ccc4c3)nc2)[nH]1)C(C)C [compound 476],< 1 nM
21,COC[C@H](NC(=O)OC)C(=O)N1CCC[C@H]1c1ncc(-c2ccc3cc(-c4ccc(-c5cnc([C@@H]6CCCN6C(=O)[C@H](NC(=O)OC)c6ccccc6)[nH]5)nn4)ccc3c2)[nH]1 [compound 477],< 1 nM
22,COC(=O)N[C@H](C(=O)N1CCC[C@H]1c1ncc(-c2ccc3cc(-c4ccc(-c5cnc([C@@H]6CCCN6C(=O)[C@H](NC(=O)OC)c6ccsc6)[nH]5)cc4)ccc3c2)[nH]1)[C@@H](C)O [compound 478],< 1 nM
23,COC(=O)N[C@H](C(=O)N1CCC[C@H]1c1ncc(-c2ccc(-c3ccc4cc(-c5cnc([C@@H]6CCCN6C(=O)[C@@H](NC(=O)OC)[C@@H](C)OC)[nH]5)ccc4c3)nc2)[nH]1)C(C)C [compound 479],< 1 nM
24,COC(=O)N[C@H](C(=O)N1CCC[C@H]1c1ncc(-c2ccc3cc(-c4ccc(-c5cnc([C@@H]6CCCN6C(=O)[C@H](NC(=O)OC)c6ccccc6)[nH]5)cn4)ccc3c2)[nH]1)[C@@H](C)OC [compound 480],< 1 nM
25,COC(=O)N[C@H](C(=O)N1CCC[C@H]1c1ncc(-c2ccc(-c3ccc4cc(-c5cnc([C@@H]6CCCN6C(=O)[C@@H](NC(=O)OC)[C@@H](C)OC)[nH]5)ccc4c3)cc2)[nH]1)C(C)C [compound 481],< 1 nM
26,COC(=O)N[C@H](C(=O)N1CCC[C@H]1c1ncc(-c2ccc(-c3ccc4cc(-c5cnc([C@@H]6CCCN6C(=O)[C@@H](NC(=O)OC)[C@@H](C)OC)[nH]5)ccc4n3)cc2)[nH]1)[C@@H](C)OC [compound 482],< 1 nM
27,COC(=O)N[C@H](C(=O)N1CCC[C@H]1c1ncc(-c2ccc(-c3cc4ccc(-c5cnc([C@@H]6CCCN6C(=O)[C@H](NC(=O)OC)c6ccccc6)[nH]5)cc4cn3)cc2)[nH]1)[C@@H](C)OC [compound 483],< 1 nM
28,COC(=O)N[C@H](C(=O)N1CCC[C@H]1c1ncc(-c2ccc(-c3cc4ccc(-c5cnc([C@@H]6CCCN6C(=O)[C@H](NC(=O)OC)c6ccccc6)[nH]5)cc4cn3)cc2)[nH]1)[C@@H](C)O [compound 484],< 1 nM
29,COC(=O)N[C@@H](C(=O)N1CCC[C@H]1c1ncc(-c2ccc(-c3ccc4cc(-c5cnc([C@@H]6CCCN6C(=O)[C@H](NC(=O)OC)c6ccsc6)[nH]5)ccc4n3)c(F)c2)[nH]1)c1ccccc1 [compound 485],< 1 nM

# Reference: patent publication US8877707B2, “Inhibitors of HCV NS5A” (Presidio Pharmaceuticals, Inc., priority 2010, dated 2014)
